What is called pA2 is a measure of antagonist potency on a negative log scale. High values mean a more potent antagonist, low ones a weaker antagonist.

Assay [1] addresses D(1A) dopamine receptor (Homo sapiens) (UniProt P21728). Conditions: Oryctolagus cuniculus.
Description: Dopamine receptor D1 like evaluated for mesenteric blood flow increase in anesthetized rabbit
Assay [2] deals with D(2) dopamine receptor (Homo sapiens) (UniProt P14416). To be noted: Oryctolagus cuniculus; Artery.
Description: Activity at Dopamine receptor D2 in rabbit ear artery
Assay [3] concerns the target T1, Adrenergic receptor alpha-1 (Homo sapiens, UniProt P35348+P25100+P35368).
T1 sequence (P35348 whole entry): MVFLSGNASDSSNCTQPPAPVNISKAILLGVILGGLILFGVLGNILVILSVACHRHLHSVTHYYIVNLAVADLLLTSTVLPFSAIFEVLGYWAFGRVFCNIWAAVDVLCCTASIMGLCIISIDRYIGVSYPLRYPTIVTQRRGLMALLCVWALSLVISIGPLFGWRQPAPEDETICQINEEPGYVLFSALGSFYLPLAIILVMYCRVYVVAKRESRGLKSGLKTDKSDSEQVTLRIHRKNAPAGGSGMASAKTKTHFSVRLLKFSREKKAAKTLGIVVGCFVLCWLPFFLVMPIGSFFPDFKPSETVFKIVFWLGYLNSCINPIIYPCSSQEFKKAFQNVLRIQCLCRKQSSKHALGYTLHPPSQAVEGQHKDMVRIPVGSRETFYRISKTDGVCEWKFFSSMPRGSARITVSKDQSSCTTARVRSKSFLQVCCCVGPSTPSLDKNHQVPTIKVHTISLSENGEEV
T1 sequence (P25100 whole entry): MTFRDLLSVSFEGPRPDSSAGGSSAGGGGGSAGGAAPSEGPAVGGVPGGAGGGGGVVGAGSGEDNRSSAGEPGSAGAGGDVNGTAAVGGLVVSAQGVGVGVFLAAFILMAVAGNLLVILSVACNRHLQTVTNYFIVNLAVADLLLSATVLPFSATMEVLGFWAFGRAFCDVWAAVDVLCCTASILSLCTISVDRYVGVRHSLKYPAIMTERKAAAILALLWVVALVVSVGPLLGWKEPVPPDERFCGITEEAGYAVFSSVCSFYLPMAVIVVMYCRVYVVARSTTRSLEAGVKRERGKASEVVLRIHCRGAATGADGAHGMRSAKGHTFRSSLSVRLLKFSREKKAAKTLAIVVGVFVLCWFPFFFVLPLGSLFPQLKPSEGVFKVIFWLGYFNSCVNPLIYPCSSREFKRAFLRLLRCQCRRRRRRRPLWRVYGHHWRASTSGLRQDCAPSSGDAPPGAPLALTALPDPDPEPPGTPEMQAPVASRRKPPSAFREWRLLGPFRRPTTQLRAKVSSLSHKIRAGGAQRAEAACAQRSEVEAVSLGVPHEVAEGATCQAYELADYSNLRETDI
T1 sequence (P35368 whole entry): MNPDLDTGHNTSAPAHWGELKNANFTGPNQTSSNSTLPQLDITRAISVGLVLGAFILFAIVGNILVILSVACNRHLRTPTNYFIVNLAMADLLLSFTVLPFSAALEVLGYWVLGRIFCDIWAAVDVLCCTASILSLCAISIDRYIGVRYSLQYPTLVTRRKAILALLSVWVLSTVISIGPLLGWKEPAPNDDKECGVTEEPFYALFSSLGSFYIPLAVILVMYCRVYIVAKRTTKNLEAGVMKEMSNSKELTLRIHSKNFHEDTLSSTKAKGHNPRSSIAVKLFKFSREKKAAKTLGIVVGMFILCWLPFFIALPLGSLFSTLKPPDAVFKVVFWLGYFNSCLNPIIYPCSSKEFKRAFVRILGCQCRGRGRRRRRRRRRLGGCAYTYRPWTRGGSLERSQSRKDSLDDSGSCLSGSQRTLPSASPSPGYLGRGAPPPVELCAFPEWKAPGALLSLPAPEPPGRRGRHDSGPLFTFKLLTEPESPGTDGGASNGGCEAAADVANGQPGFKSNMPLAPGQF
Briefly: Activity at alpha-1 adrenergic receptor in rabbit aorta rings. To be noted: target entry is the homologue from another species. Type of assay: tissue-based, Oryctolagus cuniculus.

The target of assay [4] is Adrenergic receptor alpha-2 (Homo sapiens) (UniProt P08913+P18825+P18089). To be noted: Cavia porcellus; Cardiac atrium.
Description: Alpha-2 adrenergic receptor activity in guinea pig right atrium
The target of assay [5] is Adrenergic receptor alpha-1 (Homo sapiens) (UniProt P35348+P25100+P35368). To be noted: Oryctolagus cuniculus; Aorta.

Chain of D(2) dopamine receptor (Homo sapiens) (P14416 whole entry): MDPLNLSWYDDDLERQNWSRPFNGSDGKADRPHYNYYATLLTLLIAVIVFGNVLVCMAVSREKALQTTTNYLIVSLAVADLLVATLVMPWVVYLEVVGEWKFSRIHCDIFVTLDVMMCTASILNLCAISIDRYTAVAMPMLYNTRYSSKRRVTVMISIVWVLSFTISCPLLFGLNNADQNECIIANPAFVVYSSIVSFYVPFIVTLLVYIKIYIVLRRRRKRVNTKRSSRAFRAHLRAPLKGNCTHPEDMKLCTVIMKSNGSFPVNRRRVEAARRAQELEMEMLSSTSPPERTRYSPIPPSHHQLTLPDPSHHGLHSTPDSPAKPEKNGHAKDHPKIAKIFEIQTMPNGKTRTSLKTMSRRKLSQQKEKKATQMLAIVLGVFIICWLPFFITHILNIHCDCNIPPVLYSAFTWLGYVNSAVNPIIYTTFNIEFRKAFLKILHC
Chain of D(1A) dopamine receptor (Homo sapiens) (P21728 whole entry): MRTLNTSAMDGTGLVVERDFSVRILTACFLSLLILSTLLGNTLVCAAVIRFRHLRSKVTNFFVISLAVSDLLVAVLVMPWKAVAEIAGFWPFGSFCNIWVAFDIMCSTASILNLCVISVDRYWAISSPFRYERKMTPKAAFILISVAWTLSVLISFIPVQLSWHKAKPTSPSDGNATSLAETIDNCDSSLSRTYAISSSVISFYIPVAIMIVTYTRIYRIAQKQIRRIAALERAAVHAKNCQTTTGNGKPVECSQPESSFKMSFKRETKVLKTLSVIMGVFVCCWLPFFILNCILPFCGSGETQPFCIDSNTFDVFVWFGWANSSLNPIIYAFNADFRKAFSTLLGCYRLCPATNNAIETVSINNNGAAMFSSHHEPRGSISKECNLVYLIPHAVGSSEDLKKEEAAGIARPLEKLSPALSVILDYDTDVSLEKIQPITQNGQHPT

In assay [1], `CCCN(CCCCCCCNCCOc1ccccc1OC)[C@H]1CCc2c(ccc(O)c2O)C1` yielded an ED20 of 35 nM/kg. The figures for the pD2 in assay [2] and in assay [4] were 8.4 and 5.7, respectively. This molecule had a pA2 in assay [3] of 6.8.

On to `CCCN(CCCCCCNCCOc1ccccc1OC)CCc1ccc(O)c(O)c1`, for which, in assay [1], the ED20 was over 3000 nM/kg. The pD2 is 7.56 in assay [2] and under 5 in assay [4]. The same molecule came in with a pA2 in assay [3] of 6.5.

For `CCCN(CCCCCCNCCOc1ccccc1OC)[C@H]1CCc2c(ccc(O)c2O)C1`, the ED20 in assay [1] stood at 13 nM/kg. In addition, the pD2 turned out to be 9 in assay [2] and 6.7 in assay [4]. The molecule also showed a pA2 in assay [3] of 6.5.

`CCCN(CCCCCNCCOc1ccccc1OC)[C@H]1CCc2c(ccc(O)c2O)C1` displayed an ED20 in assay [1] of 107 nM/kg. The pD2 in assay [2] is 8.7; in assay [4], 6.5. Moreover, the pA2 in assay [3] is recorded as 6.5.

With `CCCN(CCCCCCNCCOc1ccccc1OC)[C@@H]1CCc2c(ccc(O)c2O)C1`, the ED20 in assay [1] was 1050 nM/kg. In addition, the pD2 in assay [2] was 6.5; in assay [4] it was under 5. The molecule also came in with a pA2 in assay [3] of 6.9.

Consider `CCCCN(CCCCCCNCCOc1ccccc1OC)[C@H]1CCc2c(ccc(O)c2O)C1`, for which the ED20 in assay [1] is 60 nM/kg. Further, the pD2 in assay [2] was 7.5; in assay [4], under 5. In assay [3], this molecule came in with a pA2 of 6.6.

In the case of `COc1ccccc1OCCNCCCCCCN[C@H]1CCc2c(ccc(O)c2O)C1`, the ED20 in assay [1] was over 3000 nM/kg. Further, the figures for the pD2 in assay [2] and in assay [4] were 6.5 and under 5, respectively. For the same molecule, in assay [3], the pA2 was found to be 7.1.

`CCCN(CCCCCCN(C)CCOc1ccccc1OC)[C@H]1CCc2c(ccc(O)c2O)C1` came in with an ED20 in assay [1] of 34 nM/kg. In addition, the figures for the pD2 in assay [2] and in assay [4] were 8.5 and 6.9, respectively. Besides, the pA2 in assay [3] is on record as under 5.

In assay [1], `CCCN(CCCCCCN(CCC)[C@H]1CCc2c(ccc(O)c2O)C1)CCOc1ccccc1OC` showed an ED20 of 407 nM/kg. The pD2 in assay [2] turned out to be 7.4; in assay [4] it was 6. Moreover, the pA2 in assay [3] is listed as under 5.

`CNC[C@H](O)c1cccc(O)c1`: the pD2 in assay [5] was found to be 6.5.

Source of the values: ChEMBL document CHEMBL1129706, “Z1046, a novel peripheral dopaminergic agent” (Bioorg Med Chem Lett, 1996).
